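All cell lines were grown in 96-well plates and treated with compound for 48 hours. Here, GI50 denotes the concentration required for 50% inhibition of growth. The concentration for full growth arrest is given as TGI.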

The source of these data is PubChem BioAssay (NCI).

Holding throughout (test): inhibition of tumour cell growth, NCI panel, 48 h
Experiment [1] has as its system MALME-3M melanoma.
Experiment [2] deals with K-562 leukemia.
Experiment [3] relates to HOP-92 NSCLC.
Experiment [4] relates to SK-MEL-2 melanoma.
The subject of experiment [5] is EKVX NSCLC.
Experiment [6] deals with OVCAR-3 ovarian.
For experiment [7], the system named is SK-MEL-5 melanoma.
Experiment [8] has as its system NCI-H460 lung.
The test system of experiment [9] is SF-539 CNS.
Experiment [10] has as its system NCI-H226 lung.

Consider `COc1ccccc1/C=C1\CCC(CCN(C)C)(C2=CCCC2)C1=O` (stereo not given), for which the TGI turned out to be 30.3 µM in experiment [1]; 56.2 µM in experiment [2]; 46.6 µM in experiment [3]; 35.6 µM in experiment [4]; 18.6 µM in experiment [5]; 40.6 µM in [6]. In addition, the TGI was 26.7 µM in experiment [7], 31.4 µM in experiment [8], 29.5 µM in experiment [9] and 40.5 µM in [10].
Regarding `C[C@H](NC(=O)[C@@H]1CSSC[C@@H](NC(=O)c2nc3ccccc3cc2O)C(=O)NCC(=O)N1C)c1ccccc1`, the GI50 is 6.08 µM in experiment [1]; 0.663 µM in [2]; 9.69 µM in [3]; 2.55 µM in experiment [4]; 3.48 µM in [5]; 0.584 µM in experiment [6]. Moreover, the GI50 in experiment [7] was 0.582 µM; in experiment [8] it was 1.25 µM; in experiment [9] it was 1.63 µM; in experiment [10], 8.87 µM. The TGI came out at 14 µM in experiment [1]; 3.13 µM in experiment [2]; 18.6 µM in experiment [3]; 10.1 µM in experiment [4]; 11.8 µM in [5]; 1.35 µM in [6]. For the same molecule, the TGI in experiment [7] is 3.82 µM; in experiment [8], 7.98 µM; in [9], 9.13 µM; in [10], 17.4 µM.
With `COC[C@@H](N=CN1CCc2cc(OC)c(OC)cc2[C@@H]1C)C(C)(C)C`, the TGI in [1], in experiment [2], in experiment [3], in [4], in [5] and in experiment [6] was over 100 µM throughout. The TGI in experiment [7], in experiment [8], in [9] and in [10] was over 100 µM throughout.
Regarding `CCOC(=O)/C(O)=C/c1cc(OC)cc(=O)o1`, the TGI in experiment [1], in [2], in experiment [3], in experiment [4], in [5] and in experiment [6] was over 100 µM each time. Besides, the TGI in [7], in experiment [8], in experiment [9] and in experiment [10] was over 100 µM in each case.
For `O=Cc1ccccc1OCCOc1cc(OCCOc2ccccc2C=O)c(OCCOc2ccccc2C=O)cc1OCCOc1ccccc1C=O`, the TGI was over 100 µM in experiment [1]; over 100 µM in [2]; over 79.8 µM in experiment [3]; over 100 µM in experiment [4]; over 100 µM in experiment [5]; over 100 µM in experiment [6]. Further, the TGI is over 100 µM in experiment [7], over 100 µM in experiment [8], over 79 µM in [9] and over 100 µM in experiment [10].
Regarding `CN1CCN(c2ccc(NC(=O)c3nc4ccc5[nH]ncc5c4c4c3CCCC4)cc2C(F)(F)F)CC1`, the GI50 in experiment [1] is 0.76 µM; in [2] it was 0.968 µM; in [3], 0.658 µM; in [4], 7.33 µM; in [5], 1.44 µM; in experiment [6], 0.939 µM. Moreover, the GI50 is 1.53 µM in [7], 0.956 µM in [8], 0.851 µM in experiment [9] and 4.36 µM in experiment [10]. In addition, the TGI in experiment [1] worked out at 1.64 µM; in experiment [2], 2.11 µM; in experiment [3], 1.34 µM; in [4], 19.1 µM; in [5], 8.62 µM; in experiment [6], 1.81 µM. Moreover, the TGI in [7] was determined as 5.23 µM; in experiment [8] it was 1.83 µM; in [9], 1.61 µM; in experiment [10], 17.7 µM.
Turning to `C=C1SC(=Nc2c(C)cc(C)cc2C)N(C(=O)c2sc3ccccc3c2Cl)C12CCCCC2`, the GI50 is over 100 µM in [1]; 54.5 µM in [2]; 39.1 µM in experiment [3]; 61.6 µM in experiment [4]; 38.6 µM in [5]; 88.7 µM in experiment [6]. For the same molecule, the GI50 in experiment [7], in experiment [8], in experiment [9] and in experiment [10] was over 100 µM in each case. Besides, the TGI in [1], in experiment [2], in experiment [3], in experiment [4], in experiment [5] and in [6] was over 100 µM in each case. Besides, the TGI in experiment [7], in experiment [8], in experiment [9] and in experiment [10] was over 100 µM each time.
For the molecule `COc1ccc(Nc2ncc(Br)c(NCCCNC(=O)C3CCC3)n2)cc1`, the GI50 is 24.6 µM in experiment [1]; 9.27 µM in experiment [2]; 5.58 µM in experiment [3]; 22.9 µM in experiment [4]; 20.5 µM in experiment [5]; 16.5 µM in experiment [6]. Moreover, the GI50 in experiment [7] is 13 µM; in experiment [8] it was 8.34 µM; in [9] it was 3.69 µM; in [10] it was 4.8 µM. For the same molecule, the TGI was over 100 µM in experiment [1]; over 100 µM in experiment [2]; 39.8 µM in experiment [3]; 55.7 µM in experiment [4]; 83.9 µM in [5]; 48.5 µM in experiment [6]. The TGI was determined as 35.1 µM in [7], 31.5 µM in experiment [8], 18.5 µM in experiment [9] and 37.7 µM in experiment [10].
Take `C=C(CCCCCCCCC)CC(=O)SCCNC(=O)CCNC(=O)C(O)C(C)(C)COP(=O)(O)OP(=O)(O)OCC1OC(n2cnc3c(N)ncnc32)C(O)C1OP(=O)(O)O` (stereo not given): the TGI in experiment [1] was over 100 µM; in experiment [2], over 31.6 µM; in experiment [3], over 100 µM; in experiment [4], 99.3 µM; in [5], over 100 µM; in experiment [6], over 100 µM. Further, the TGI in [7] is 52.2 µM; in experiment [8] it was over 100 µM; in experiment [9], over 85.6 µM; in experiment [10], over 100 µM.
Turning to `COc1ccc2c(c1)C(=O)c1c-2n(CCCN=[N+]=[N-])c(=O)c2cc(N(C)C)ccc12`, the GI50 in [1] is over 100 µM; in experiment [2], over 100 µM; in [3] it was 2.87 µM; in experiment [4], over 100 µM; in [5] it was over 100 µM; in experiment [6], over 100 µM. The GI50 was 23.8 µM in experiment [7], over 100 µM in experiment [8], 17.6 µM in [9] and over 100 µM in [10]. Further, the TGI in experiment [1] was over 100 µM; in experiment [2], over 100 µM; in experiment [3], 24.6 µM; in [4], over 100 µM; in experiment [5] it was over 100 µM; in [6], over 100 µM. For the same molecule, the TGI in experiment [7], in [8], in [9] and in [10] was over 100 µM in each case.
For `CCc1n(Cc2ccc3ccccc3n2)cc[n+]1Cc1ccc2ccccc2n1`, the GI50 in experiment [1] was 0.128 µM; in [2] it was 0.493 µM; in experiment [3], 0.0183 µM; in [4], 0.217 µM; in experiment [5], 0.343 µM; in experiment [6] it was 0.0878 µM. Further, the GI50 in [7] is 0.0653 µM; in [8], 0.511 µM; in experiment [9], 0.681 µM; in [10] it was 2.56 µM. Also, the TGI in experiment [1] amounted to 0.973 µM; in experiment [2] it was 16.1 µM; in [3] it was 0.521 µM; in [4], 2.11 µM; in [5], 41.5 µM; in [6], 6.66 µM. Besides, the TGI was determined as 1.02 µM in [7], 11.9 µM in experiment [8], 15.8 µM in [9] and 30.8 µM in experiment [10].
Take `CC(=O)Nc1ccc(C(=O)NN2C(=O)C(Cl)C2c2ccc([N+](=O)[O-])cc2)cc1` (stereo not given): the TGI in experiment [1], in experiment [2], in experiment [3], in experiment [4], in experiment [5] and in [6] was over 100 µM in each case. The TGI in [7], in experiment [8], in experiment [9] and in experiment [10] was over 100 µM in each case.
As for `CCn1c(C(=O)N(C2CC2)C2CC2)cc2c3c(ncn3C)c(Nc3cc(C)n(C)n3)nc21`, the GI50 in experiment [1], in [2], in [3], in experiment [4], in experiment [5] and in [6] was over 100 µM in each case. Besides, the GI50 in experiment [7], in experiment [8], in [9] and in [10] was over 100 µM each time. Also, the TGI in experiment [1], in [2], in experiment [3], in experiment [4], in experiment [5] and in experiment [6] was over 100 µM each time. Also, the TGI in [7], in experiment [8], in experiment [9] and in [10] was over 100 µM throughout.
Take `CC1OC(OCC2OC(Oc3c(-c4ccc(O)cc4)oc4cc(O)cc(O)c4c3=O)C(OC3OC(C)C(O)C(O)C3O)C(O)C2O)C(O)C(O)C1O` (stereo not given): the TGI in [1] was over 100 µM; in experiment [2], over 31.6 µM; in experiment [3], over 100 µM; in [4], over 100 µM; in [5] it was over 100 µM; in experiment [6] it was over 100 µM. The TGI in experiment [7], in [8], in [9] and in [10] was over 100 µM in each case.
As to `O=C(Nc1cccc([N+](=O)[O-])c1)C(=O)C(C(=O)c1ccccc1-c1ccccc1)C1OC(=O)c2ccccc21` (stereo not given), the TGI in experiment [1] was 34.5 µM; in experiment [2], over 100 µM; in [3] it was 32.8 µM; in experiment [4] it was 38.3 µM; in experiment [5], 59.1 µM; in experiment [6] it was 36.4 µM. For the same molecule, the TGI came out at 30.7 µM in experiment [7], 88 µM in experiment [8], 28.4 µM in experiment [9] and 25.9 µM in experiment [10].
As to `CCO/C=C/C(C)C1(C(=O)OCC)CCCCC1=O` (stereo not given), the TGI in experiment [1], in experiment [2], in [3], in experiment [4], in experiment [5] and in experiment [6] was over 100 µM throughout. Moreover, the TGI in experiment [7], in experiment [8], in [9] and in [10] was over 100 µM in each case.
Turning to `Cc1ccc(S(=O)(=O)NCCNC2=CC(=O)c3nc4ccccc4c4ccnc2c34)cc1`, the GI50 in experiment [1] was 20.5 µM; in experiment [2], 25 µM; in experiment [3] it was 20.3 µM; in experiment [4] it was 33 µM; in experiment [5] it was 32.3 µM; in [6], 17.5 µM. For the same molecule, the GI50 in [7] is 14.6 µM; in experiment [8], 15.7 µM; in [9], 19.1 µM; in experiment [10] it was 22.2 µM. The TGI in experiment [1] is 54.5 µM; in [2], over 100 µM; in experiment [3], 55.7 µM; in experiment [4], over 100 µM; in experiment [5], 89 µM; in experiment [6] it was 46.4 µM. Moreover, the TGI in experiment [7] came out at 33.9 µM; in experiment [8], 56.5 µM; in experiment [9], 38.3 µM; in experiment [10] it was 54.4 µM.
In the case of `CC(=O)NNc1nc(C)c(C(=O)NNC(=O)C(=O)Nc2c(C)cccc2C)s1`, the TGI in experiment [1] was over 100 µM; in [2] it was over 100 µM; in [3], over 100 µM; in [4], over 100 µM; in experiment [5], over 100 µM; in experiment [6] it was 65.3 µM. Further, the TGI in experiment [7], in experiment [8], in experiment [9] and in [10] was over 100 µM throughout.
For the molecule `CC1CC2CC(=O)CC3(C1)C2CCCN3CCCO` (stereo not given), the TGI in [1], in experiment [2], in [3], in [4], in [5] and in experiment [6] was over 100 µM throughout. The TGI in [7], in [8], in experiment [9] and in experiment [10] was over 100 µM in each case.
